Data taken from patent US4892885A, “Esters of (triarylphosphoranylidene)carbamic acid for effecting diuresis” (American Cyanamid Company, priority 1988, dated 1990).

Experiments:
[1] = test system: Spontaneously Hypertensive Rats; assay: Diuretic activity in spontaneously hypertensive rats (0-5 hour urine); format: in vivo, Male spontaneously hypertensive rats (SHR) of Okamoto strain; details: 100 mg/kg by gavage, sodium chloride loading, SHR
Method: The diuretic activity of the compounds of this invention was also determined according to the method of Chan, P. S. and Poorvin, D., "Sequential method for combined screening antihypertensive and diuretic agents in the same spontaneously hypertensive rat." Clinical and Experimental Hypertension, 1(6), 817-830 (1979). Male spontaneously hypertensive rats (SHR) of Okamoto strain, 16 weeks old, Taconic Farms Inc. were used in the test. These rats were kept on Purina laboratory chow and tap water ad libitum for 8 weeks before use. One male adult rat (about 300 g) was dosed by gavage with a test compound at 100 mg/kg together with 0.9 sodium chloride loading at […] at zero hour. The tese compound was suspended in 3% preboiled starch at 50 mg/ml. The rat was put in a metabolism cage. The 0-5 hour urine was collected and urinary sodium and potassium were determined using a Beckman Astra 4.

plasma renin activity = assay: Inhibition of evoked (drug-induced) increase of plasma renin activity (PRA) in conscious rats; format: in vivo; details: 25 mg/kg oral, 30 minutes prior to hydrochlorothiazide (10 mg/kg) + ACE inhibitor (1 mg/kg) provocative treatment; male Wistar rats; number of rats in parentheses
Method: Inhibition of evoked increase of plasma renin activity was determined by the following test.
Compounds were tested for their ability to prevent drug-induced elevation of plasma renin activity (PRA) in conscious, male Wistar rats (180-200 g, Charles River Lab.). PRA elevation was induced by a combined oral provocative treatment (C) of hydrochlorothiazide (10 mg/kg) and 1-(3-benzoyl-3-mercapto-2-methylpropionyl)-L-proline, acetate (U.S. Pat. No. 4,226,775) (one mg/kg), prepared by compounding in a mortar and pestle with preboiled 3% starch suspension. This treatment provided the daily maximum PRA. The daily minimum PRA was obtained from rats given oral starch suspension (S) alone. The magnitude of drug effect on PRA elevation was ascertained from rats pretreated orally with test agent (D), at the indicated doeses, 30 minutes prior to administration of provocative treatment (C). The test agent was also compounded in preboiled 3% starch suspension. The dose volumes for both pretreatment and provocative treatment were 2 ml/kg. One hour after provocative treatment the rats were sacrificed by decapitation and the first 3 seconds of blood collected in two chilled vacutainer tubes containing […] of 150 mg/ml tripotassium EDTA. […]
PRA is calculated as follows: PRA ([…])=PRA 37° C.-PRA 4° C.
Percent inhibition of PRA elevation is calculated as follows: [formula]

SMILES | Potassium (urinary) [1] [MEQ/5 Hours] | Sodium (urinary) [1] [MEQ/5 Hours] | Volume (urine) [1] [mL] | Percent Inhibition of Plasma Renin Elevation, Average % Inhibition (No. of rats) (plasma renin activity) [%]
CCOC(=O)N=P(c1ccccc1)(c1ccccc1)c1ccccc1CN1CCCCC1 [[Diphenyl[2-(1-piperidinylmethyl)phenyl]phosphoranylidene]carbamic acid, ethyl ester] | 0.37 | 1.92 | 18.8 | –
CCOC(=O)N=P(c1ccccc1)(c1ccccc1)c1ccccc1CN1CCCC1 [[Diphenyl[2-(1-pyrrolidinylmethyl)phenyl]phosphoranylidene]carbamic acid, ethyl ester] | 0.56 | 1.36 | 12.0 | –
CCOC(=O)N=P(c1ccccc1)(c1ccccc1)c1ccccc1CN(C)C [[[2-[(Dimethylamino)methyl]phenyl]diphenylphosphoranylidene]carbamic acid, ethyl ester] | 0.67 | 1.47 | 15.5 | 16
COC(=O)N=P(c1ccccc1)(c1ccccc1)c1ccccc1CN(C)C [[[2-[(Dimethylamino)methyl]phenyl]diphenylphosphoranylidene]carbamic acid, methyl ester] | 0.83 | 1.62 | 19.5 | 77
CCCN(CCC)Cc1ccccc1P(=NC(=O)OCC)(c1ccccc1)c1ccccc1 [[[2-[(Dipropylamino)methyl]phenyl]diphenylphosphoranylidene]carbamic acid, ethyl ester] | 0.40 | 1.41 | 22.0 | –
CCOC(=O)N=P(c1ccccc1)(c1ccccc1)c1ccccc1CNC.Cl [[[2-[(Methylamino)methyl]phenyl]diphenylphosphoranylidene]carbamic acid, ethyl ester, monohydrochloride] | 0.51 | 1.66 | 17.5 | –
CCOC(=O)N=P(c1ccccc1)(c1ccccc1)c1ccccc1CN(CC)CC [[[[2-(Diethylamino)methyl]phenyl]diphenylphosphoranylidene]carbamic acid, ethyl ester] | 0.48 | 2.46 | 23.3 | –
